PMC8496776, “Staphylococcus aureus Lipase 3 (SAL3) is a surface-associated lipase that hydrolyzes short chain fatty acids” (PLoS ONE, 2021)

Key:
[1] = molecular target: T1, rSAL3 (Staphylococcus aureus lipase 3, SAL3) (Staphylococcus aureus, UniProt A0A0H2XHH9); assay: LC-MS/MS loss of OAG without oleic acid release; also protein lipid overlay binding; assay type: biochemical; conditions: 2 h, 37 C, PBS; 2 ug/mL OAG; hydrolysis at the sn-2 acetate inferred
T1 construct: gene SAUSA300_0641

[2] = molecular target: T1, rSAL3 (Staphylococcus aureus lipase 3, SAL3); assay: p-nitrophenol release at […] nm; assay type: biochemical; conditions: 2 mM ester, 100 mM Tris HCl, 100 mM NaCl, pH 7, 37 C

T1 sequence (A0A0H2XHH9 entry or part of it): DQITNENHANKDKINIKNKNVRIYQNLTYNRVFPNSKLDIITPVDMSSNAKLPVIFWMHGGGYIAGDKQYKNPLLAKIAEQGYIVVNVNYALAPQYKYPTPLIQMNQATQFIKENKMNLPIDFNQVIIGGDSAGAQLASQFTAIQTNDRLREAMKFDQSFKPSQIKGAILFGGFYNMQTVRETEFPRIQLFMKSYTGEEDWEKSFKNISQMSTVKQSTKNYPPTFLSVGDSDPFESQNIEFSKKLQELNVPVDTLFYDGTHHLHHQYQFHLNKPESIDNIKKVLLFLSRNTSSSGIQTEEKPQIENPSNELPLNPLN

Row | Compound | LC-MS/MS loss of OAG without oleic acid release; also protein lipid overlay bind [1] | specific activity [2]
1 | CCCCCCCC/C=C\CCCCCCCC(=O)OCC(CO)OC(C)=O (centres unmarked) [1-oleoyl 2-acetyl glycerol] | marked reduction in the substrate only in reactions containing WT rSAL3 | 
2 | CCCC(=O)Oc1ccc([N+](=O)[O-])cc1 [pNP-C4, paranitrophenol butyrate] |  | Alanine substitution mutations introduced in rSAL3MUT abolished the activity against pNP-C4
